{
  "source": "patent US20050112059A1",
  "about": "“Enhancement of radiotherapy by an exogenous cardiac glycoside” (Phoenix Biotechnology, Inc., priority 2003, published 2005)",
  "key": {"PC-3 cells [1]": {"system": "PC-3 cells", "assay": "Clonogenic cell survival with caspase-3 inhibitor, oleandrin and radiation", "type": "cell-based, human", "settings": "for Survival of cells (%) following radiation of 2 Gy / Survival of cells (%) following radiation of 6 Gy / Survival of cells (%) following radiation of O Gy: oleandrin 0.05 μg/ml 24 hours, ZDEVD-FMK 100 μM added 2 hours before oleandrin; for Survival of cells (%) following radiation of 2 Gy: control 74.6 ± 3.4; for Survival of cells (%) following radiation of 6 Gy: control 7.8 ± 0.6; for Survival of cells (%) following radiation of O Gy: no radiation, percent control, mean±SE", "description": "PC-3 cells were incubated with 0.05 μg/ml oleandrin for 24 hours before being irradiated with 2 or 6 Gy. […] Clonogenic cell survival was then determined. Colonies were counted and the survival of cells (percent control) was calculated. Data are presented as mean±SE from three experiments."}, "human tumor cell lines": {"system": "human tumor cell lines", "settings": "cited from earlier work"}, "PC-3 cells [2]": {"system": "PC-3 cells", "assay": "Effect of duration of oleandrin exposure on radiosensitivity (colony survival, 3 Gy)", "type": "cell-based, human", "description": "The magnitude of radiosensitization depended on duration of exposure of cells to oleandrin prior to radiation. PC-3 cells were incubated in the presence of 0.05 μg/ml oleandrin for 1-24 hours. After oleandrin treatment, cells were irradiated with 3 Gy radiation and plated as in Example 1. Colonies were counted after 12 days and percent surviving fractions were plotted. […] Cell survival after 3 Gy radiation only was 50% compared to 30% after 3 Gy radiation plus 0.05 μg/ml oleandrin. Values shown are means±SE for three independent experiments. The average survival levels were fit by least squares regression using a linear quadratic model."}, "NF-kB": {"system": "NF-kB", "settings": "cited from earlier work"}, "caspase-3": {"system": "caspase-3", "assay": "Caspase-3 activation by western blotting", "type": "cell-based, human", "description": "To determine whether caspase-3 activation was involved in the oleandrin-induced enhancement of PC-3 cell radioresponse, cells were treated with 5 Gy or 0.05 μg/ml oleandrin or a combination of both treatments for 24 hours. Cells were assayed for caspase-3 activation 24 hours after treatment using western blotting. cells were lysed in a buffer containing 50 mM Tris-HCl (pH 8), 450 mM NaCl, 1% triton X-100, 5 mM EDTA, 1% (v/v) of protease inhibitor cocktail, and 1% (v/v) phosphatase inhibitor cocktails I and II (Sigma, St. Louis, Mo.). Protein ([…] per lane) was separated by sodium dodecyl sulfate-polyacrylamide gel electrophoresis (“SDS-PAGE”) and transferred to a polyvinylidene difluoride (“PVDF”) membrane (Bio-Rad Laboratories, Hercules, Calif.). The membrane was blocked by 5% non-fat dry milk in Tris-buffered saline and 0.1% Tween-20 (“TBS-T”) and before incubation with a designated primary antibody (Pharmingen, San Diego, Calif.). After washing the membrane with TBS-T, it was incubated in secondary antibody and the immunoreaction was visualized using an ECL western blotting kit (Amersham Corp., Arlington Heights, Ill.)."}, "PC-3 cells [3]": {"system": "PC-3 cells", "assay": "Colony forming ability of PC-3 cells after oleandrin and graded γ-irradiation", "type": "cell-based, human", "description": "The human prostate carcinoma cell line PC-3 was obtained from the American Type Culture Collection and maintained in RPMI 1640 medium supplemented with 10% fetal calf serum, 10,000 U/ml of penicillin-streptomycin, and 2 mM L-glutamine. Cells were grown as monolayers in 75-cm^2 flasks and maintained in a humidified 5% CO2/95% air atmosphere at 37.8° C.\n[…] graded doses (2, 4 or 6 Gy) of γ-rays using a ^137Cs source (3.7 Gy/min) and assayed for colony forming ability by replating them in specified numbers into 100-mm dishes containing drug-free media. After 12 days of incubation, cells were stained with 0.5% crystal violet in absolute ethanol, and colonies with more than 50 cells were counted. The average survival levels were fit by least squares regression using a linear quadratic model. Survival curves were constructed with normalized values for the cytotoxicity induced by oleandrin alone. Oleandrin by itself reduced plating efficiency from the 95% control value to 21%.\nThe untreated control samples are represented by the open circles and the oleandrin treated samples are represented by the filled circles. Values shown are the means±SE for three independent experiments. The enhancement factor at the cell survival fraction of 0.1 was 1.32."}, "PC-3 cells [4]": {"system": "PC-3 cells", "assay": "Apoptosis by TUNEL assay and flow cytometry", "type": "cell-based, human", "description": "PC-3 cells were incubated with 0.05 μg/ml oleandrin for 24 hours, irradiated at 2 Gy, or both. The control cells were untreated. The medium containing oleandrin was removed, fresh medium was added, and 24 hours later the apoptotic index was determined.\nApoptosis was determined by staining and flow cytometry analysis. The terminal deoxynucleotidyltransferase (“TdT”) dUTP nick end labeling (“TUNEL”) assay to identify the DNA fragmentation (APO-DIRECT kit, Pharmingen, San Diego, Calif.) was performed according to the manufacturer's instructions. Briefly, cells (2×10^6) were fixed in 1% paraformaldehyde and washed in PBS. Cells were suspended in 70% ethanol and stored at −20° C. until use. Re-suspended cells were stained in a solution containing TdT and FITC-dUTP and incubated overnight at room temperature in the dark. They were then rinsed and re-suspended in 0.5 ml propidium iodide/RNase A solution and analyzed by flow cytometry."}, "murine tumor cell lines": {"system": "murine tumor cell lines", "settings": "cited from earlier work"}, "PC-3 cells [5]": {"system": "PC-3 cells", "assay": "Hoechst 33258 staining of apoptotic cells, fluorescent microscope", "type": "cell-based, human", "settings": "oleandrin plus radiation versus any other treated or control population", "text": "In addition, the control cells and the experimental cells were stained with a fluorescent dye, Hoechst 33258, that binds to fragmented DNA. The PC-3 cells were observed under a fluorescent microscope."}, "[6]": {"system": "normal human lung fibroblasts", "settings": "cited from earlier work"}, "[7]": {"system": "A549 human lung adenocarcinoma cells", "settings": "cited from earlier work"}, "[8]": {"system": "human tumor cells including squamous cell carcinoma and melanoma", "settings": "squamous cell carcinoma and melanoma among types; cited from earlier work"}},
  "data": [
    {"compound": "CO[C@H]1C[C@H](O[C@H]2CC[C@@]3(C)[C@H](CC[C@@H]4[C@@H]3CC[C@]3(C)[C@@H](C5=CC(=O)OC5)[C@@H](OC(C)=O)C[C@]43O)C2)O[C@@H](C)[C@@H]1O", "note": "[Oleandrin, oleandrin]", "values": [
      {"measurement": "Survival of cells (%) following radiation of 2 Gy", "setting": "PC-3 cells [1]", "value": "55.5 ± 1.9", "unit": "%"},
      {"measurement": "Survival of cells (%) following radiation of 6 Gy", "setting": "PC-3 cells [1]", "value": "3.1 ± 0.8", "unit": "%"},
      {"measurement": "Survival of cells (%) following radiation of O Gy", "setting": "PC-3 cells [1]", "value": "88.9 ± 2.9", "unit": "%"},
      {"measurement": "induction of apoptosis", "setting": "human tumor cell lines", "value": "induces apoptosis"},
      {"measurement": "radiosensitizing effect versus duration of exposure", "setting": "PC-3 cells [2]; 0.05 μg/ml oleandrin 1-24 hours, 3 Gy", "value": "increased as the duration of exposure to oleandrin increased up to 24 hours"},
      {"measurement": "cell survival", "setting": "PC-3 cells [2]; 3 Gy radiation plus 0.05 μg/ml oleandrin, exposure 1 hour, 3 Gy only 50%", "value": 30, "unit": "%"},
      {"measurement": "activation of NF-kB", "setting": "NF-kB", "value": "inhibits activation"},
      {"measurement": "activation of caspase-3", "setting": "caspase-3; 0.05 μg/ml oleandrin alone, 24 hours, assayed 24 hours after treatment", "value": "effective"},
      {"measurement": "level of caspase-3 activation", "setting": "caspase-3; 0.05 μg/ml oleandrin combined with 5 Gy", "value": "higher"},
      {"measurement": "cytotoxicity by itself", "setting": "PC-3 cells [3]; oleandrin 0.025 μg/ml", "value": "non-cytotoxic"},
      {"measurement": "influence on radiosensitization", "setting": "PC-3 cells [3]; oleandrin 0.025 μg/ml", "value": "no significant influence"},
      {"measurement": "enhancement factor at the cell survival fraction of 0.1", "setting": "PC-3 cells [3]; oleandrin 0.05 μg/ml 24 hours, then 2, 4 or 6 Gy γ-rays", "value": 1.32},
      {"measurement": "plating efficiency", "setting": "PC-3 cells [3]; oleandrin 0.05 μg/ml for 24 hours, by itself (no radiation), control value 95%", "value": 21, "unit": "%"},
      {"measurement": "percentage of apoptotic cells", "setting": "PC-3 cells [4]; 0.05 μg/ml oleandrin 24 hours alone, measured 24 hours later, control 2.1±0.4", "value": "63.5±6.1", "unit": "%"},
      {"measurement": "percentage of apoptotic cells", "setting": "PC-3 cells [4]; 0.05 μg/ml oleandrin 24 hours plus 2 Gy, 2 Gy alone 8.2±3.4%", "value": "85.8±5.3", "unit": "%"},
      {"measurement": "combination effect on apoptosis versus individual treatments", "setting": "PC-3 cells [4]; oleandrin 0.05 μg/ml plus 2 Gy", "value": "more than the additive effects"},
      {"measurement": "induction of apoptosis", "setting": "murine tumor cell lines", "value": "not in murine tumor cell lines"},
      {"measurement": "apoptotic cells observed (Hoechst 33258)", "setting": "PC-3 cells [5]", "value": "More apoptotic cells"}
    ]},
    {"compound": "C[C@@H]1O[C@@H](O[C@H]2C[C@@H](O)[C@]3(CO)[C@H]4[C@H](O)C[C@]5(C)[C@@H](C6=CC(=O)OC6)CC[C@]5(O)[C@@H]4CC[C@]3(O)C2)[C@H](O)[C@H](O)[C@H]1O", "note": "[Ouabain, ouabain]", "values": [
      {"measurement": "modification of radioresponse", "setting": "[6]", "value": "ineffective"},
      {"measurement": "in vitro radiosensitivity", "setting": "[7]", "value": "enhance in vitro radiosensitivity"},
      {"measurement": "radiosensitization", "setting": "[8]", "value": "radiosensitize"}
    ]},
    {"compound": "ZDEVD-FMK [Z-DEVD-FMK]", "values": [
      {"measurement": "Survival of cells (%) following radiation of 2 Gy", "setting": "PC-3 cells [1]", "value": "77.8 ± 3.2", "unit": "%"},
      {"measurement": "Survival of cells (%) following radiation of 6 Gy", "setting": "PC-3 cells [1]", "value": "8.6 ± 2.1", "unit": "%"},
      {"measurement": "effect on oleandrin-induced enhancement of radiation response", "setting": "PC-3 cells [1]; ZDEVD-FMK 100 μM with oleandrin 0.05 μg/ml", "value": "abolished"},
      {"measurement": "Survival of cells (%) following radiation of O Gy", "setting": "PC-3 cells [1]", "value": "97.4 ± 1.7", "unit": "%"}
    ]}
  ]
}
